In patent US20260070945A1, “MACROCYCLIC IMMUNOMODULATORS” (Bristol-Myers Squibb Company, priority 2022, published 2026) one finds IC50 data, which are given here for eleven compounds.

Structures are written as SMILES. *1 amine or outer side, *2 acyl side, *3 side chain or, on linkers, in order; H or OH if unused. Where a SMILES comes first, the peptide text is derived from it. Bridges are numbered along the chain shown (N, C = ends). [ ]: non-standard residue; d: D form. The star is where a group is joined. ξ: configuration not given here. Phe(3-CF3) = N[C@@H](Cc1cccc(C(F)(F)F)c1)C(=O)O; Phe(4-COOH) = N[C@@H](Cc1ccc(C(=O)O)cc1)C(=O)O; Bip = N[C@@H](Cc1ccc(-c2ccccc2)cc1)C(=O)O; NH(CH2)14COOH = O=C(O)CCCCCCCCCCCCCCN*; Phe(3-Me) = Cc1cccc(C[C@H](N)C(=O)O)c1; γGlu = O=C(O)[C@H](CCC(=O)[*:2])N[*:1]; NH(CH2)12COOH = O=C(O)CCCCCCCCCCCCN*; Val(3-OH) = CC(C)(O)[C@H](N)C(=O)O; aIle = CC[C@@H](C)[C@H](N)C(=O)O; 4Pal = N[C@@H](Cc1ccncc1)C(=O)O; 2Thi = N[C@@H](Cc1cccs1)C(=O)O; 3Thi = N[C@@H](Cc1ccsc1)C(=O)O; Cha = N[C@@H](CC1CCCCC1)C(=O)O; Cit = NC(=O)NCCC[C@H](N)C(=O)O; Ile(3ξ) = CCC(C)[C@H](N)C(=O)O; Thr(3ξ) = CC(O)[C@H](N)C(=O)O; Carboxymethyl = O=C(O)C*; NMeA = CN[C@@H](C)C(=O)O; Orn = NCCC[C@H](N)C(=O)O; Aun = NCCCCCCCCCCC(=O)O; Dab = NCC[C@H](N)C(=O)O; Dap = NC[C@H](N)C(=O)O; AEEA = NCCOCCOCC(=O)O

In one assay the target is T1, PD-1/PD-L1 interaction (PE-labeled human PD-L1-Ig binding to Jurkat cell line over-expressing human PD-1) (Homo sapiens, UniProt Q15116).
T1 construct: expressed in transfected cells; host or cells: Jurkat
T1 sequence (Q15116 25-288): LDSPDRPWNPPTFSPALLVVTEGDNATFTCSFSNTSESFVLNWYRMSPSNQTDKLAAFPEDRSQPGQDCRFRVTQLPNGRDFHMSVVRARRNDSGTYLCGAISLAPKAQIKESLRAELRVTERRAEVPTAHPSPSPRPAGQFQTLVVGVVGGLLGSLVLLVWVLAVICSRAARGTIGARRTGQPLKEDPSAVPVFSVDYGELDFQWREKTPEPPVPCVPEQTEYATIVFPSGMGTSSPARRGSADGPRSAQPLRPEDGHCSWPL
As to the kind of experiment: Jurkat-PD-1 Cell Binding High-Content Screening Assay (CBA). The following applies: Jurkat-hPD-1 cells, PE-labeled PD-L1-Ig 20 nM final; read-out: Jurkat HPD1 PDL1 IC50. The method in brief: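 In this imaging assay, cells in 10% FCS medium see compound for 2 h at 37 °C and then labeled ligand at 20 nM final for 1 h. Paraformaldehyde fixation, Hoechst 33342 staining and dPBS washes precede image capture.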
In general, IC50 refers to the point on the concentration scale where inhibition reaches its midpoint. For the compound `CC[C@@H](C)[C@@H]1NC(=O)[C@H](Cc2ccc(-c3ccccc3)cc2)NC(=O)[C@H](C(C)C)NC(=O)[C@H](Cc2c[nH]c3ccccc23)NC(=O)[C@H](CC(=O)O)NC(=O)[C@H](Cc2ccc(OCC(=O)O)cc2)NC(=O)[C@H](Cc2ccncc2)NC(=O)CSC[C@@H](C(=O)N[C@H](C)C(=O)NCCOCCOCC(=O)N[C@@H](CCC(=O)NCCOCCOCC(=O)N[C@@H](CCC(=O)NCCOCCOCC(=O)N[C@@H](CCCN)C(=O)NCCCCCCCCCCC(=O)O)C(=O)O)C(=O)O)NC(=O)[C@H](CO)NC(=O)[C@H](C(C)C)NC(=O)[C@H](CC2CCCCC2)NC(=O)[C@H](CC(N)=O)NC(=O)[C@@H](CC(C)C)NC(=O)[C@H](C)N(C)C1=O` [Example 2016] ({CH2CO}-[4Pal]Y(Carboxymethyl)DWV[Bip][aIle][NMeA][dL]N[Cha]VSC[dA][AEEA][γGlu][AEEA][γGlu][AEEA][Orn][Aun]-OH; thioether N-14), the IC50 is 38.8 nM.
For `CC(C)C[C@@H]1NC(=O)[C@H](Cc2c[nH]c3ccccc23)NC(=O)[C@H](CC(=O)O)NC(=O)[C@H](Cc2ccc(C(=O)O)cc2)NC(=O)[C@H](Cc2ccc(OCC(=O)O)cc2)NC(=O)CSC[C@@H](C(=O)N[C@@H](CCN)C(=O)NCCCCCCCCCCC(=O)O)NC(=O)[C@H](CCCNC(N)=O)NC(=O)[C@H](C(C)C)NC(=O)[C@H](CC2CCCCC2)NC(=O)[C@H](CCN)NC(=O)[C@@H](CC(C)C)NC(=O)[C@H](C)N(C)C(=O)[C@H](C(C)C)NC(=O)[C@H](Cc2ccc(-c3ccccc3)cc2)NC1=O` [Example 2188] ({CH2CO}-Y(Carboxymethyl)[Phe(4-COOH)]DWL[Bip]V[NMeA][dL][Dab][Cha]V[Cit]C[Dab][Aun]-OH; thioether N-14), the IC50 came out at 12.1 nM.
In the case of `CC(C)C[C@H]1NC(=O)[C@H](C)N(C)C(=O)[C@H](Cc2ccc(C(=O)O)cc2)NC(=O)[C@H](Cc2ccc(-c3ccccc3)cc2)NC(=O)[C@H](Cc2ccc(C(=O)O)cc2)NC(=O)[C@H](Cc2cccc(C(F)(F)F)c2)NC(=O)[C@H](CC(=O)O)NC(=O)[C@H](Cc2ccc(OCC(=O)O)cc2)NC(=O)[C@H](Cc2ccc(C(=O)O)cc2)NC(=O)CSC[C@@H](C(=O)N[C@@H](CCN)C(=O)NCCOCCOCC(=O)N[C@@H](CCC(=O)NCCOCCOCC(=O)NCCCCCCCCCCCCC(=O)O)C(=O)O)NC(=O)[C@H](CO)NC(=O)[C@H](C(C)(C)O)NC(=O)[C@H](CC2CCCCC2)NC(=O)[C@H](CCN)NC1=O` [Example 1161] ({CH2CO}-[Phe(4-COOH)]Y(Carboxymethyl)D[Phe(3-CF3)][Phe(4-COOH)][Bip][Phe(4-COOH)][NMeA][dL][Dab][Cha][Val(3-OH)]SC[Dab][AEEA][γGlu][AEEA]-{NH(CH2)12COOH}; thioether N-14), the concentration for half-maximal inhibition (IC50) was found to be 81.4 nM.
On to `CC(C)C[C@@H]1NC(=O)[C@H](Cc2c[nH]c3ccccc23)NC(=O)[C@H](CC(=O)O)NC(=O)[C@H](Cc2ccc(C(=O)O)cc2)NC(=O)[C@H](Cc2ccc(OCC(=O)O)cc2)NC(=O)CSC[C@@H](C(=O)N[C@@H](CCCN)C(=O)NCCOCCOCC(=O)NCCCCCCCCCCC(=O)O)NC(=O)[C@H](CCCCN)NC(=O)[C@H](C(C)C)NC(=O)[C@H](CC2CCCCC2)NC(=O)[C@H](CC(=O)O)NC(=O)[C@@H](CC(C)C)NC(=O)[C@H](C)N(C)C(=O)[C@H](C(C)C)NC(=O)[C@H](Cc2ccc(-c3ccccc3)cc2)NC1=O` [Example 2136] ({CH2CO}-Y(Carboxymethyl)[Phe(4-COOH)]DWL[Bip]V[NMeA][dL]D[Cha]VKC[Orn][AEEA][Aun]-OH; thioether N-14), for which the IC50 stood at 143 nM.
Take `Cc1cccc(C[C@@H]2NC(=O)[C@H](CC(=O)O)NC(=O)[C@H](Cc3ccc(OCC(=O)O)cc3)NC(=O)[C@H](CN)NC(=O)CSC[C@@H](C(=O)N[C@@H](CCN)C(=O)NCCCCCCCCCCC(=O)O)NC(=O)[C@H](CCCN)NC(=O)[C@H](C(C)C)NC(=O)[C@H](CC3CCCCC3)NC(=O)[C@H](CCN)NC(=O)[C@@H](CC(C)C)NC(=O)[C@H](C)N(C)C(=O)[C@H](Cc3ccc(O)cc3)NC(=O)[C@H](Cc3ccc(-c4ccccc4)cc3)NC(=O)[C@H](Cc3ccc(O)cc3)NC2=O)c1` [Example 1313] ({CH2CO}-[Dap]Y(Carboxymethyl)D[Phe(3-Me)]Y[Bip]Y[NMeA][dL][Dab][Cha]V[Orn]C[Dab][Aun]-OH; thioether N-14): the IC50 turned out to be 28.2 nM.
Still for that read-out and setting: the result for `Cc1cccc(C[C@@H]2NC(=O)[C@H](CC(=O)O)NC(=O)[C@H](Cc3ccc(OCC(=O)O)cc3)NC(=O)[C@H](C(C)O)NC(=O)CSC[C@@H](C(=O)NCCOCCOCC(=O)NCCCCCCCCCCC(=O)O)NC(=O)[C@H](C(C)O)NC(=O)[C@H](C(C)C)NC(=O)[C@H](CC3CCCCC3)NC(=O)[C@H](CCN)NC(=O)[C@@H](CC(C)C)NC(=O)[C@H](C)N(C)C(=O)[C@H](Cc3ccc(OCC(=O)O)cc3)NC(=O)[C@H](Cc3ccc(-c4ccccc4)cc3)NC(=O)[C@H](Cc3ccc(OCC(=O)O)cc3)NC2=O)c1` (stereo partly drawn) [Example 2341] ({CH2CO}-[Thr(3ξ)]Y(Carboxymethyl)D[Phe(3-Me)]Y(Carboxymethyl)[Bip]Y(Carboxymethyl)[NMeA][dL][Dab][Cha]V[Thr(3ξ)]C[AEEA][Aun]-OH; thioether N-14) reads 41.7 nM.

Still in this assay, the particulars now being: PE-labeled PD-L1-Ig 20 nM final, Jurkat-hPD-1 cells; read-out: Jurkat HPD1 PDL1 IC50.
Turning to `Cc1cccc(C[C@@H]2NC(=O)[C@H](CC(=O)O)NC(=O)[C@H](Cc3ccc(C(=O)O)cc3)NC(=O)[C@H](Cc3ccsc3)NC(=O)CSC[C@@H](C(=O)N[C@@H](CCN)C(=O)NCCOCCOCC(=O)NCCOCCOCC(=O)NCCCCCCCCCCC(=O)O)NC(=O)[C@H](CCC(=O)O)NC(=O)[C@H](C(C)(C)O)NC(=O)[C@H](CC3CCCCC3)NC(=O)[C@H](CCN)NC(=O)[C@@H](CC(C)C)NC(=O)[C@H](C)N(C)C(=O)[C@H](Cc3ccc(OCC(=O)O)cc3)NC(=O)[C@H](Cc3ccc(-c4ccccc4)cc3)NC(=O)[C@H](Cc3ccc(OCC(=O)O)cc3)NC2=O)c1` [Example 2500] ({CH2CO}-[3Thi][Phe(4-COOH)]D[Phe(3-Me)]Y(Carboxymethyl)[Bip]Y(Carboxymethyl)[NMeA][dL][Dab][Cha][Val(3-OH)]EC[Dab][AEEA][AEEA][Aun]-OH; thioether N-14), the IC50 came to 19.5 nM.
Same read-out and setting: the result for `CC(C)C[C@H]1NC(=O)[C@H](C)N(C)C(=O)[C@H](Cc2ccc(C(=O)O)cc2)NC(=O)[C@H](Cc2ccc(-c3ccccc3)cc2)NC(=O)[C@H](Cc2ccc(C(=O)O)cc2)NC(=O)[C@H](Cc2cccc(C(F)(F)F)c2)NC(=O)[C@H](CC(=O)O)NC(=O)[C@H](Cc2ccc(C(=O)O)cc2)NC(=O)[C@H](C(C)O)NC(=O)CSC[C@@H](C(=O)N[C@@H](CCN)C(=O)NCCOCCOCC(=O)NCCOCCOCC(=O)NCCCCCCCCCCCCC(=O)O)NC(=O)[C@H](CC(=O)O)NC(=O)[C@H](C(C)C)NC(=O)[C@H](CC2CCCCC2)NC(=O)[C@H](CCN)NC1=O` (stereo partly drawn) [Example 2615] ({CH2CO}-[Thr(3ξ)][Phe(4-COOH)]D[Phe(3-CF3)][Phe(4-COOH)][Bip][Phe(4-COOH)][NMeA][dL][Dab][Cha]VDC[Dab][AEEA][AEEA]-{NH(CH2)12COOH}; thioether N-14) reads 64.1 nM.
In the case of `CC(C)C[C@H]1NC(=O)[C@H](C)N(C)C(=O)[C@H](CCCNC(N)=O)NC(=O)[C@H](Cc2ccc(-c3ccccc3)cc2)NC(=O)[C@H](Cc2ccc(OCC(=O)O)cc2)NC(=O)[C@H](Cc2cccc(C(F)(F)F)c2)NC(=O)[C@H](CC(=O)O)NC(=O)[C@H](Cc2ccc(OCC(=O)O)cc2)NC(=O)[C@H](Cc2ccc(OCC(=O)O)cc2)NC(=O)CSC[C@@H](C(=O)N[C@@H](CCN)C(=O)NCCCCCCCCCCCCCCC(=O)O)NC(=O)[C@H](CCC(=O)O)NC(=O)[C@H](C(C)(C)O)NC(=O)[C@H](CC2CCCCC2)NC(=O)[C@H](CCN)NC1=O` [Example 2625] ({CH2CO}-Y(Carboxymethyl)Y(Carboxymethyl)D[Phe(3-CF3)]Y(Carboxymethyl)[Bip][Cit][NMeA][dL][Dab][Cha][Val(3-OH)]EC[Dab]-{NH(CH2)14COOH}; thioether N-14), the IC50 was 190 nM.
Still for that read-out and setting: the figure for `CCC(C)[C@@H]1NC(=O)[C@H](Cc2ccc(-c3ccccc3)cc2)NC(=O)[C@H](C(C)C)NC(=O)[C@H](Cc2c[nH]c3ccccc23)NC(=O)[C@H](CC(=O)O)NC(=O)[C@H](Cc2ccc(C(=O)O)cc2)NC(=O)[C@H](Cc2cnc[nH]2)NC(=O)CSC[C@@H](C(=O)N[C@@H](CCN)C(=O)NCCOCCOCC(=O)N[C@@H](CCC(=O)NCCCCCCCCCCCCCCC(=O)O)C(=O)O)NC(=O)[C@H](CCC(=O)O)NC(=O)[C@H](C(C)(C)O)NC(=O)[C@H](CC2CCCCC2)NC(=O)[C@H](CCN)NC(=O)[C@@H](CC(C)C)NC(=O)[C@H](C)N(C)C1=O` (stereo partly drawn) [Example 2633] ({CH2CO}-H[Phe(4-COOH)]DWV[Bip][Ile(3ξ)][NMeA][dL][Dab][Cha][Val(3-OH)]EC[Dab][AEEA]E(NH(CH2)14COOH)-OH; thioether N-14) is 207 nM; for `CC(C)C[C@H]1NC(=O)[C@H](C)N(C)C(=O)[C@H](Cc2ccc(C(=O)O)cc2)NC(=O)[C@H](Cc2ccc(-c3ccccc3)cc2)NC(=O)[C@H](Cc2ccc(OCC(=O)O)cc2)NC(=O)[C@H](Cc2cccc(C(F)(F)F)c2)NC(=O)[C@H](CC(=O)O)NC(=O)[C@H](Cc2ccc(OCC(=O)O)cc2)NC(=O)[C@H](Cc2cccs2)NC(=O)CSC[C@@H](C(=O)N[C@@H](CCN)C(=O)NCCCCCCCCCCCCC(=O)O)NC(=O)[C@H](Cc2cnc[nH]2)NC(=O)[C@H](C(C)(C)O)NC(=O)[C@H](CC2CCCCC2)NC(=O)[C@H](CCN)NC1=O` [Example 2636] ({CH2CO}-[2Thi]Y(Carboxymethyl)D[Phe(3-CF3)]Y(Carboxymethyl)[Bip][Phe(4-COOH)][NMeA][dL][Dab][Cha][Val(3-OH)]HC[Dab]-{NH(CH2)12COOH}; thioether N-14) it is 136 nM.
